Assays:
L1210 = test: Phototoxicity against mouse L1210 cells assessed as cell viability preincubated for 1 hr followed by 1.05 J/cm2 UV-A irradiation measured after 48 hrs by MTT assay; format: functional, cell-based; conditions: L1210, light or radiation study
[1] = Dark toxicity against mouse L1210 cells assessed as cell viability after 48 hrs by MTT assay; format: cell-based
[2] = Dark toxicity against mouse NIH/3T3 cells assessed as cell viability after 48 hrs by MTT assay; format: cell-based, NIH3T3
[3] = Phototoxicity against mouse NIH/3T3 cells assessed as cell viability preincubated for 1 hr followed by 1.05 J/cm2 UV-A irradiation measured after 48 hrs by MTT assay; format: cell-based; conditions: NIH3T3, light or radiation study

CCCCCNC(=S)Nc1ccc2cc3ccc(NC(=S)NCCCCC)cc3nc2c1
IC50 (L1210): 0.6 µM | IC50 at 48 h [1]: 9.2 µM | IC50 at 48 h [2]: 37.5 µM | IC50 [3]: 3.7 µM
